PubChem BioAssay AID248 (DTP/NCI, 2004)
“And” between values parts separate entries of the source, which are not always exact repeats. Equal values may be shown once. Inconclusive results and toxic doses are left out. No stated cut-off is given here; in the data, active means T/C of 150% or more; inactive means T/C below 125%. Square brackets hold non-standard residues; d marks the D form. Peptide text beside a SMILES is read from it. * marks the point of attachment. ξ: configuration not given here. Cbz = O=C(OCc1ccccc1)*; ξNle = CCCCC(N)C(=O)O

System: L1210 leukemia ip in BDF1 mice, survival T/C
Assay: NCI In Vivo Anticancer Drug Screen. Data for tumor model L1210 Leukemia (intraperitoneal) in B6D2F1 (BDF1) mice
Settings: endpoint: mean survival time, higher = longer survival
Outline: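 Antitumor effect is assessed in tumor-bearing animals. Survival in the compound arm is compared with a vehicle-dosed control arm and expressed as their quotient.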

[1] = dose: 100.0 mg/kg/injection, schedule: Q01DX001 (ip), vehicle: saline
[2] = dose: 200.0 mg/kg/injection, schedule: Q01DX001 (ip), vehicle: saline
[3] = dose: 400.0 mg/kg/injection, schedule: Q01DX001 (ip), vehicle: saline
[4] = dose: 100.0 mg/kg/injection, schedule: Q04DX003 (ip), vehicle: saline
[5] = dose: 200.0 mg/kg/injection, schedule: Q04DX003 (ip), vehicle: saline
[6] = dose: 400.0 mg/kg/injection, schedule: Q04DX003 (ip), vehicle: saline
[7] = dose: 100.0 mg/kg/injection, schedule: Q04DX002 (ip), vehicle: Klucel (hydroxypropylcellulose) (HPC)
[8] = dose: 200.0 mg/kg/injection, schedule: Q04DX002 (ip), vehicle: Klucel (hydroxypropylcellulose) (HPC)
[9] = dose: 400.0 mg/kg/injection, schedule: Q04DX002 (ip), vehicle: Klucel (hydroxypropylcellulose) (HPC)
[10] = dose: 100.0 mg/kg/injection, schedule: Q01DX009 (ip), vehicle: Klucel (hydroxypropylcellulose) (HPC)
[11] = dose: 200.0 mg/kg/injection, schedule: Q01DX009 (ip), vehicle: Klucel (hydroxypropylcellulose) (HPC)
[12] = dose: 400.0 mg/kg/injection, schedule: Q01DX009 (ip), vehicle: Klucel (hydroxypropylcellulose) (HPC)
[13] = dose: 100.0 mg/kg/injection, schedule: Q04DX003 (ip), vehicle: Klucel (hydroxypropylcellulose) (HPC)
[14] = dose: 200.0 mg/kg/injection, schedule: Q04DX003 (ip), vehicle: Klucel (hydroxypropylcellulose) (HPC)
[15] = dose: 400.0 mg/kg/injection, schedule: Q04DX003 (ip), vehicle: Klucel (hydroxypropylcellulose) (HPC)
[16] = dose: 25.0 mg/kg/injection, schedule: Q01DX009 (ip), vehicle: Klucel (hydroxypropylcellulose) (HPC)
[17] = dose: 50.0 mg/kg/injection, schedule: Q01DX009 (ip), vehicle: Klucel (hydroxypropylcellulose) (HPC)

Measured: T/C

CC(C)(C)N1CCC1C(=O)O (configuration not stated)
inactive: [1] 92 % of control | [2] 97 % of control | [3] 97 % of control

OCCN(CCO)CN(CO)c1nc(N(CO)CN(CCO)CCO)nc(N(CO)CN(CCO)CCO)n1
inactive: dose: 100.0 mg/kg/injection, schedule: Q01DX009 (ip), vehicle: saline 100 % of control | [4] 101 % of control | dose: 200.0 mg/kg/injection, schedule: Q01DX009 (ip), vehicle: saline 109 % of control | [5] 101 % of control | dose: 400.0 mg/kg/injection, schedule: Q01DX009 (ip), vehicle: saline 109 % of control | [6] 91 % of control

CCOCc1nc(NC(C)=O)nc(NC(C)=O)c1-c1ccc(Cl)cc1
inactive: dose: 75.0 mg/kg/injection, schedule: Q01DX001 (ip), vehicle: saline with Tween-80 100 % of control | dose: 150.0 mg/kg/injection, schedule: Q01DX001 (ip), vehicle: saline with Tween-80 96 % of control

c1ccc(-c2nc3ccccc3[nH]2)cc1
inactive: dose: 55.0 mg/kg/injection, schedule: Q01DX Z (ip), vehicle: methylcellulose (MC) 107 % of control | dose: 83.0 mg/kg/injection, schedule: Q01DX Z (ip), vehicle: methylcellulose (MC) 103 % of control | [7] 109 % of control and 95 % of control | dose: 125.0 mg/kg/injection, schedule: Q01DX Z (ip), vehicle: methylcellulose (MC) 100 % of control | [8] 103 % of control and 106 % of control | [9] 109 % of control and 98 % of control

C/C=C\c1ccc(OC(=O)Nc2ccc(C(=O)OCC)cc2)c(OC)c1
inactive: [10] 94 % of control | [11] 94 % of control | [12] 89 % of control

Cc1ccc2c(c1)C(c1ccccc1)(c1ccccc1)N(c1ccccc1)S2(=O)=O
inactive: dose: 100.0 mg/kg/injection, schedule: Q01DX001 (ip), vehicle: carboxymethylcellulose (CMC) 94 % of control | dose: 200.0 mg/kg/injection, schedule: Q01DX001 (ip), vehicle: carboxymethylcellulose (CMC) 91 % of control | dose: 400.0 mg/kg/injection, schedule: Q01DX001 (ip), vehicle: carboxymethylcellulose (CMC) 100 % of control

O=C(O)C1C(c2ccccc2)CC(=O)N1c1ccc(Cl)cc1 (configuration not stated)
inactive: [7] 102 % of control | [8] 91 % of control | [9] 94 % of control

CC(C)(C)[Si](O)C(C)(C)C
inactive: dose: 75.0 mg/kg/injection, schedule: Q01DX001 (ip), vehicle: saline 91 % of control | dose: 150.0 mg/kg/injection, schedule: Q01DX001 (ip), vehicle: saline 98 % of control | dose: 300.0 mg/kg/injection, schedule: Q01DX001 (ip), vehicle: saline 96 % of control

O=C(c1ccccc1)C1C2C=CC(C2)C1C(=O)c1ccccc1 (configuration not stated)
inactive: [10] 94 % of control | [13] 108 % of control | [11] 107 % of control | [14] 97 % of control | [12] 93 % of control | [15] 100 % of control

CCCCCN(CCCCC)CC(O)c1cc2c(c3ccccc13)CCCC2 (configuration not stated)
inactive: [16] 87 % of control | [17] 93 % of control | [10] 90 % of control

Cc1cc(NC(=O)Nc2ccc(Cl)cc2C)no1
inactive: dose: 12.5 mg/kg/injection, schedule: Q01DX009 (ip), vehicle: Klucel (hydroxypropylcellulose) (HPC) 102 % of control | [16] 97 % of control | [17] 91 % of control

CC(C)(C)C1=CC(=O)C(N=[N+]=[N-])=CC1=O
inactive: dose: 100.0 mg/kg/injection, schedule: Q04DX002 (ip), vehicle: saline 94 % of control | dose: 200.0 mg/kg/injection, schedule: Q04DX002 (ip), vehicle: saline 115 % of control

Cc1ccc(NC(=O)Nc2cccc(F)c2)cc1C
inactive: [10] 94 % of control | [11] 97 % of control | [12] 95 % of control

O=C(CSc1cc(-c2ccc(Cl)cc2)s[s+]1)c1ccc(Cl)cc1
inactive: [4] 102 % of control | [5] 98 % of control | [6] 98 % of control

COc1ccccc1-n1c(O)c(N=Nc2ccc(Br)cc2)c(=O)n(-c2ccccc2OC)c1=S
inactive: dose: 100.0 mg/kg/injection, schedule: Q01DX001 (ip), vehicle: Klucel (hydroxypropylcellulose) (HPC) 103 % of control | dose: 200.0 mg/kg/injection, schedule: Q01DX001 (ip), vehicle: Klucel (hydroxypropylcellulose) (HPC) 105 % of control | dose: 400.0 mg/kg/injection, schedule: Q01DX001 (ip), vehicle: Klucel (hydroxypropylcellulose) (HPC) 92 % of control

CC(C)C1CCC2(CC1)CCN(CCCN(C)C)CC2
inactive: dose: 50.0 mg/kg/injection, schedule: Q01DX001 (ip), vehicle: saline 93 % of control | [1] 113 % of control

CCCC[Si](C)(C)CCCC
inactive: [1] 103 % of control | [2] 105 % of control | [3] 100 % of control

CCCCCCCCCCCC(=O)NC(=S)Nc1cccc(F)c1
inactive: [13] 95 % of control | [14] 90 % of control

OCCN1CCN(CC/C=C2/c3ccccc3Sc3ccc(C(F)(F)F)cc32)CC1
inactive: dose: 0.78 mg/kg/injection, schedule: Q03HX024 (ip), vehicle: saline 94 % of control | dose: 1.56 mg/kg/injection, schedule: Q03HX024 (ip), vehicle: saline 103 % of control | dose: 2.0 mg/kg/injection, schedule: Q01DX009 (ip), vehicle: saline 89 % of control | dose: 2.5 mg/kg/injection, schedule: Q01DX009 (ip), vehicle: saline 114 % of control | dose: 3.12 mg/kg/injection, schedule: Q03HX024 (ip), vehicle: saline 105 % of control | dose: 4.0 mg/kg/injection, schedule: Q01DX009 (ip), vehicle: saline 98 % of control | dose: 5.0 mg/kg/injection, schedule: Q01DX009 (ip), vehicle: saline 103 % of control | dose: 6.25 mg/kg/injection, schedule: Q04DX003 (ip), vehicle: saline 101 % of control | dose: 8.0 mg/kg/injection, schedule: Q01DX009 (ip), vehicle: saline 93 % of control | dose: 10.0 mg/kg/injection, schedule: Q01DX009 (ip), vehicle: saline 116 % of control | dose: 10.0 mg/kg/injection, schedule: Q04DX003 (ip), vehicle: saline 115 % of control | dose: 12.5 mg/kg/injection, schedule: Q04DX003 (ip), vehicle: saline 110 % of control | dose: 18.75 mg/kg/injection, schedule: Q01DX001 (ip), vehicle: saline 107 % of control | dose: 20.0 mg/kg/injection, schedule: Q01DX009 (ip), vehicle: saline 95 % of control | dose: 37.5 mg/kg/injection, schedule: Q01DX001 (ip), vehicle: saline 117 % of control | dose: 50.0 mg/kg/injection, schedule: Q04DX003 (ip), vehicle: saline 121 % of control

CCCCCCCCCCCCCCCCCC(CCCCCCCCCCCCCCCCC)=NNC(N)=S
inactive: dose: 100.0 mg/kg/injection, schedule: Q01DX009 (ip), vehicle: other 92 % of control | dose: 200.0 mg/kg/injection, schedule: Q01DX009 (ip), vehicle: other 89 % of control | dose: 400.0 mg/kg/injection, schedule: Q01DX009 (ip), vehicle: other 97 % of control

N#CC(/C=C/c1ccco1)Nc1ccccc1C(N)=O (configuration not stated)
inactive: [10] 121 % of control | [13] 93 % of control | [11] 121 % of control | [14] 94 % of control | [15] 100 % of control

O=C(/C=C\c1ccc([N+](=O)[O-])cc1)NCCCCNC(=O)/C=C/c1ccc([N+](=O)[O-])cc1
inactive: [1] 96 % of control

CCCCCCCC(=O)Nc1ccc(C)cc1
inactive: [17] 97 % of control | [10] 95 % of control | [13] 99 % of control | [11] 98 % of control | [14] 98 % of control

CCCCC(NC(=O)CNC(=O)CNC(=O)OCc1ccccc1)C(=O)O (stereo not drawn) (Cbz-Gly-Gly-[ξNle]-OH)
inactive: [13] 108 % of control | [14] 104 % of control | [15] 96 % of control
